Laboratory results from patent US9408835B2, “Pharmaceutical composition for oral administration” (ASTELLAS PHARMA INC., priority 2013, dated 2016).
Converted amounts (≈) assume the structure as drawn. Where two headings read alike, the source gives them in different places.

What was measured:
Janus kinase 3 = target: T1, Janus kinase 3 (Homo sapiens, UniProt P52333); details: reported in Patent literature 1; cited from earlier work
T1 sequence (P52333 1-1124): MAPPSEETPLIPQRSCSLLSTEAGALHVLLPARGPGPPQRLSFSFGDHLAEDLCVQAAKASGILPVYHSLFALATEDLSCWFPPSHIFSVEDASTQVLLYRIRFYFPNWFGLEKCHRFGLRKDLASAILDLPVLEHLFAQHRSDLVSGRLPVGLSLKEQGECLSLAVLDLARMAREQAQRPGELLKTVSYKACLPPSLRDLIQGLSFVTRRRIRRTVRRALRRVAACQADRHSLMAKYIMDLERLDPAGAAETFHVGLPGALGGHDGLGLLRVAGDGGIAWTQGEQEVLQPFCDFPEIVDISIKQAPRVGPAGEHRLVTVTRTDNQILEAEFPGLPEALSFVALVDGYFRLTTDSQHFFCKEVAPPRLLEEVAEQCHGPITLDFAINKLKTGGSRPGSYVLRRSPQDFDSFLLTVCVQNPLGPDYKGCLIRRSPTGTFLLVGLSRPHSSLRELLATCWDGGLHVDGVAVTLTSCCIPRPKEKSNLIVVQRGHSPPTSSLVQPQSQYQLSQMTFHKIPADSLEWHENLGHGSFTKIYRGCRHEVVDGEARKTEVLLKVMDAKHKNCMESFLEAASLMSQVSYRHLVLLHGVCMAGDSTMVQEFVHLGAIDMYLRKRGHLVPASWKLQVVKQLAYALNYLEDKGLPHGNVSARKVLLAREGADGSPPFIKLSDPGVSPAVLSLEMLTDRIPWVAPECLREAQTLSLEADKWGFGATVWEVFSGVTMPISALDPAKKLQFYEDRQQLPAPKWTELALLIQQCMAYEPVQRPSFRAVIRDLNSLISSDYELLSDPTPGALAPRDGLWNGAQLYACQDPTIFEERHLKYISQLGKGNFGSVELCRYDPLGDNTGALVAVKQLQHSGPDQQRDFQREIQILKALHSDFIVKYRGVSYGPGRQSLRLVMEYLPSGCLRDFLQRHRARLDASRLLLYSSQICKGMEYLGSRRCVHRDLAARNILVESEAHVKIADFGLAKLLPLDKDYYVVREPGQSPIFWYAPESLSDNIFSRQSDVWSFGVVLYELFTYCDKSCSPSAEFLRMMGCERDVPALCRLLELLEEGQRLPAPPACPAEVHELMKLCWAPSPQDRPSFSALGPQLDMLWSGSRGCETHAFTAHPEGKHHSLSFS

[1] = Solubility of compound A in dissolution test fluids and water; type: physicochemical

- difference in solubility between acidic and neutral pH range ([1]; JP1 pH 1.2 vs pH 6.8): about 1,000 times
- solubility ([1]; Japanese Pharmacopoeia, aqueous buffer, 2nd fluid for dissolution test JP2 (pH 6.8), read-out: solubility at a neutral pH range): ~0.008 mg/mL (≈ 0.0245 mM)
- solubility ([1]; Japanese Pharmacopoeia, simulated gastric fluid, 1st fluid for dissolution test JP1 (pH 1.2), read-out: solubility at an acidic pH range): ~8.6 mg/mL (≈ 26.3 mM)
- solubility ([1]; aqueous buffer, pH 6.8 phosphate buffer, USP, read-out: solubility at a neutral pH range): ~0.011 mg/mL (≈ 0.0337 mM)
- solubility ([1]; water, read-out: solubility in water): ~12.5 mg/mL (≈ 38.3 mM)
Structure (SMILES): NC(=O)c1cnc2[nH]ccc2c1N[C@@H]1[C@@H]2CC3C[C@H]1C[C@@](O)(C3)C2 [compound A, 4-{[(1R,2s,3S,5s,7s)-5-hydroxy-2-adamantyl]amino}-1H-pyrrolo[2,3-b]pyridine-5-carboxamide]
- JAK3 inhibitory activity (Janus kinase 3): superior
